The text below walks through data of patent US20220105189A1, “POLYETHYLENE GLYCOL CONJUGATED DRUG AND ITS PREPARATION METHOD AND USE” (CHONGQING UPGRA BIOTECHNOLOGY CO., LTD., priority 2019, published 2022).

In this assay the test system is human colon cancer cell colo205. In words: Anti-tumor efficacy on subcutaneously transplanted tumor of colo205 (Experimental Example 2). Type of assay: in vivo, Balb/c nude mice. The conditions noted are these: colo205, Day 19; 23-161 16.06 mg/kg tail vein; PCB 1.73 mg/kg oral. How it is done: 1. Tumor strain and transplantation method of solid tumor: Human colon cancer cell colo205 was routinely preserved in the cell room of the State Key Laboratory of Molecular Oncology, Institute of Cancer Research, Chinese Academy of Medical Sciences. The tumor cells were taken out of liquid nitrogen, quickly thawed at 37° C., resuscitated and expanded, and then inoculated subcutaneously in the right axillary of healthy Balb/c mice. When the transplanted tumor grew to about 1.0 cm in diameter, the mice were sacrificed. Under aseptic conditions, the tumors were peeled off for passage by conventional methods.
2. Tumor inoculation and grouping: the tumor-bearing mice were sacrificed, the tumors were peeled off under aseptic condition and washed with normal saline several times, the necrotic tissues were removed, the well-growing tumor tissues were selected and divided into 2×2 mm tissue blocks, and the tumor tissue blocks were inoculated subcutaneously in the right axillary with a special metal trocar. After the transplantation of the tumor tissue blocks, administration in groups was carried out on the day of the transplantation.
3. […]
4. Data collection: the mice were weighed, the volume of tumors was measured, the mice were scarified on Day 19, the tumors were weighed, and the tumor inhibition rate (%) was calculated. […]

As to `CC(=O)c1c(C)c2cnc(Nc3ccc(N4CCNCC4)cn3)nc2n(C2CCCC2)c1=O` [PCB, Palbociclib], the Tumor inhibition rate is given as −5.8% and the “Tumor weight (g) Average” value turned out to be 0.39 g.
